Patent US20160002204A1 (Board of Regents, The University of Texas System, priority 2014, published 2016)

Key:
A549 cells = test: A549 proliferation (viability) assay, Cell Titer Fluor, 72 hours; format: cell-based; conditions: Homo sapiens
How it was run: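 A549 cells in RPMI 1640 with 10% dialyzed FBS were seeded at 1000 cells/well, grown 24 h, then exposed to compound (0.5% DMSO final) for 72 h at 37 °C, 5% CO2. Viability was read by Cell Titer Fluor fluorescence; EC50 from four-parameter logistic fit.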

[1] = target: T1, GLS1 (purified recombinant human GAC) (Homo sapiens, UniProt O94925); test: GLS1 enzymatic activity assay (dual-coupled, Amplex UltraRed/resorufin); format: biochemical
T1 sequence (O94925 55-598 isoform O94925-3 limits assumed): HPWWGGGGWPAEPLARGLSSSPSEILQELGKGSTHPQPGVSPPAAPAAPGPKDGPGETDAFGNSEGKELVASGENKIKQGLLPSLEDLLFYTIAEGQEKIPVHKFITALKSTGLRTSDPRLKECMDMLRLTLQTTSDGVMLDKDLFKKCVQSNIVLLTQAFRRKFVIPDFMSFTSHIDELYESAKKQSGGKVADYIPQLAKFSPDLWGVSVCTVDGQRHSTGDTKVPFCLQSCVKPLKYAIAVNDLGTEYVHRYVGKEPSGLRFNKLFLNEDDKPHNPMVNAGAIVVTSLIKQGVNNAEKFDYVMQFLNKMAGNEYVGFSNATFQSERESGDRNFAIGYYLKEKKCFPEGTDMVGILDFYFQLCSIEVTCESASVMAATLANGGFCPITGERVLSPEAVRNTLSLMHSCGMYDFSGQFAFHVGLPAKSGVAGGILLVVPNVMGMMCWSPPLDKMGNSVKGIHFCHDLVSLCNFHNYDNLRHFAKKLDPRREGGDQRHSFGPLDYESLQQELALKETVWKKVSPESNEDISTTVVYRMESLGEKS
How it was run: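 In this coupled fluorometric format, phosphate-activated GAC (2 nM, 50 mM phosphate) is pre-exposed to compound for 10 min before 1 mM glutamine addition. Product is tracked as resorufin (530/590 nm) over time or at 20 min, and potency is derived by logistic fitting.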

SMILES | EC50 (A549 cells) [µM] | IC50 [1] [µM]
O=C(CC1CCC1)Nc1ccn(CCC(F)Cn2cc(C(=O)NCc3ccc(CF)nc3)nn2)c(=O)c1F (centres unmarked) [Example 374, 1-{4-[4-(2-cyclobutylacetamido)-3-fluoro-2-oxo-1,2-dihydropyridin-1-yl]-2-fluorobutyl}-N-{[6-(fluoromethyl)pyridin-3-yl]methyl}-1H-1,2,3-triazole-4-carboxamide] | 0.1 to 0.5 | < 0.1
O=C(Cc1ccccc1)Nc1ccn(CCC(F)Cn2cc(C(=O)NCc3ccc(CF)nc3)nn2)c(=O)c1F (centres unmarked) [Example 375, 1-{2-fluoro-4-[3-fluoro-2-oxo-4-(2-phenylacetamido)-1,2-dihydropyridin-1-yl]butyl}-N-{[6-(fluoro-methyl)pyridin-3-yl]methyl}-1H-1,2,3-triazole-4-carboxamide] | 0.5 to 5 | 0.1 to 0.5
O=C(Nc1ccn(CCC(F)Cn2cc(C(=O)NCc3cccc(OC(F)(F)F)c3)nn2)c(=O)c1F)OC1CCC1 (centres unmarked) [Example 376, cyclobutyl N-(3-fluoro-1-{3-fluoro-4-[4-({[3-(trifluoro-methoxy)phenyl]methyl}carbamoyl)-1H-1,2,3-triazol-1-yl]butyl}-2-oxo-1,2-dihydropyridin-4-yl)carbamate] | < 0.1 | < 0.1
O=C(Nc1ccn(CCC(F)Cn2cc(C(=O)NCc3cc(C(F)(F)F)ccn3)nn2)c(=O)c1F)OC1CCC1 (centres unmarked) [Example 377, cyclobutyl N-(3-fluoro-1-{3-fluoro-4-[4-({[4-(trifluoromethyl)pyridin-2-yl]methyl}carbamoyl)-1H-1,2,3-triazol-1-yl]butyl}-2-oxo-1,2-dihydropyridin-4-yl)carbamate] | < 0.1 | < 0.1
O=C(Cc1ccccc1)Nc1ccn(CCC(F)Cn2cc(C(=O)NCc3ccc(C(F)(F)F)cn3)nn2)c(=O)c1F (centres unmarked) [Example 379, 1-{2-fluoro-4-[3-fluoro-2-oxo-4-(2-phenylacetamido)-1,2-dihydropyridin-1-yl]butyl}-N-{[5-(trifluoromethyl)pyridin-2-yl]methyl}-1H-1,2,3-triazole-4-carboxamide] | 0.1 to 0.5 | < 0.1
N#Cc1ccc(CNC(=O)c2cn(CC(F)CCn3ccc(NC(=O)Cc4ccccc4)c(F)c3=O)nn2)cn1 (centres unmarked) [Example 380, N-[(6-cyanopyridin-3-yl)methyl]-1-{2-fluoro-4-[3-fluoro-2-oxo-4-(2-phenylacetamido)-1,2-dihydropyridin-1-yl]butyl}-1H-1,2,3-triazole-4-carboxamide] | 0.5 to 5 | 0.1 to 0.5
O=C(Cc1ccccc1)Nc1ccn(CCC(F)Cn2cc(C(=O)NCC3CCCC3)nn2)c(=O)c1F (centres unmarked) [Example 381, N-(cyclopentylmethyl)-1-{2-fluoro-4-[3-fluoro-2-oxo-4-(2-phenylacetamido)-1,2-dihydropyridin-1-yl]butyl}-1H-1,2,3-triazole-4-carboxamide] | 0.5 to 5 | 0.1 to 0.5
Nc1ccn(CCC(F)Cn2cc(C(=O)NCc3cccc(OC(F)(F)F)c3)nn2)c(=O)n1 (centres unmarked) [Example 382, 1-[4-(4-amino-2-oxo-1,2-dihydropyrimidin-1-yl)-2-fluorobutyl]-N-{[3-(trifluoromethoxy)phenyl]methyl}-1H-1,2,3-triazole-4-carboxamide] | > 5 | 0.5 to 5
O=C(Nc1ccn(CCC(F)Cn2cc(C(=O)NCc3cccc(OC(F)(F)F)c3)nn2)c(=O)n1)OC1CCCCC1 (centres unmarked) [Example 383, cyclohexyl N-(1-{3-fluoro-4-[4-({[3-(trifluoromethoxy)phenyl]methyl}carbamoyl)-1H-1,2,3-triazol-1-yl]butyl}-2-oxo-1,2-dihydropyrimidin-4-yl)carbamate] | < 0.1 | < 0.1
CC(C)OC(=O)Nc1ccn(CCC(F)Cn2cc(C(=O)NCc3cccc(OC(F)(F)F)c3)nn2)c(=O)n1 (centres unmarked) [Example 384, propan-2-yl N-(1-{3-fluoro-4-[4-({[3-(trifluoromethoxy)phenyl]methyl}carbamoyl)-1H-1,2,3-triazol-1-yl]butyl}-2-oxo-1,2-dihydro-pyrimidin-4-yl)carbamate] | 0.1 to 0.5 | < 0.1
O=C(Nc1ccn(CCC(F)Cn2cc(C(=O)NCc3cccc(OC(F)(F)F)c3)nn2)c(=O)n1)OC1CCC1 (centres unmarked) [Example 385, cyclobutyl N-(1-{3-fluoro-4-[4-({[3-(trifluoromethoxy)phenyl]methyl}carbamoyl)-1H-1,2,3-triazol-1-yl]butyl}-2-oxo-1,2-dihydro-pyrimidin-4-yl)carbamate] | 0.1 to 0.5 | < 0.1
O=C(CC1CCCC1)Nc1cnn(CCC(F)Cn2cc(C(=O)NCc3cccc(OC(F)(F)F)c3)nn2)c(=O)c1 (centres unmarked) [Example 386, 1-(4-(4-(2-cyclopentylacetamido)-6-oxopyridazin-1(6H)-yl)-2-fluorobutyl)-N-(3-(trifluoromethoxy)benzyl)-1H-1,2,3-triazole-4-carboxamide] | 0.1 to 0.5 | < 0.1
O=C(CC1CCCC1)Nc1ccn(CCC(F)Cn2cc(C(=O)NCc3ncccc3F)nn2)c(=O)c1F (centres unmarked) [Example 387, 1-{4-[4-(2-cyclopentylacetamido)-3-fluoro-2-oxo-1,2-dihydropyridin-1-yl]-2-fluorobutyl}-N-[(3-fluoropyridin-2-yl)methyl]-1H-1,2,3-triazole-4-carboxamide] | < 0.1 | < 0.1
O=C(CC1CCCC1)Nc1ccn(CCC(F)Cn2cc(C(=O)NCc3ccc(CF)nc3)nn2)c(=O)c1F (centres unmarked) [Example 388, 1-{4-[4-(2-cyclopentylacetamido)-3-fluoro-2-oxo-1,2-dihydropyridin-1-yl]-2-fluorobutyl}-N-{[6-(fluoromethyl)pyridin-3-yl]methyl}-1H-1,2,3-triazole-4-carboxamide] | < 0.1 | < 0.1
O=C(CC1CCC1)Nc1ccn(CCC(F)Cn2cc(C(=O)NCc3ccc(OC(F)(F)F)cn3)nn2)c(=O)c1F (centres unmarked) [Example 389, 1-{4-[4-(2-cyclobutylacetamido)-3-fluoro-2-oxo-1,2-dihydropyridin-1-yl]-2-fluorobutyl}-N-{[5-(trifluoromethoxy)pyridin-2-yl]methyl}-1H-1,2,3-triazole-4-carboxamide] | < 0.1 | < 0.1
O=C(CC1CCC1)Nc1ccn(CCC(F)Cn2cc(C(=O)NCc3ccc(C(F)(F)F)cn3)nn2)c(=O)c1F (centres unmarked) [Example 390, 1-{4-[4-(2-cyclobutylacetamido)-3-fluoro-2-oxo-1,2-dihydropyridin-1-yl]-2-fluorobutyl}-N-{[5-(trifluoromethyl)pyridin-2-yl]methyl}-1H-1,2,3-triazole-4-carboxamide] | < 0.1 | 0.1 to 0.5
NC(=O)c1cn(CC(F)CCn2ccc(NC(=O)CC3CCC3)c(F)c2=O)nn1 (centres unmarked) [Example 391, 1-{4-[4-(2-cyclobutylacetamido)-3-fluoro-2-oxo-1,2-dihydropyridin-1-yl]-2-fluorobutyl}-1H-1,2,3-triazole-4-carboxamide] | > 5 | 0.5 to 5
O=C(Cc1ccccc1)Nc1ccn(CCC(F)Cn2cc(C(=O)NCc3cc(Cl)ccc3F)nn2)c(=O)c1F (centres unmarked) [Example 392, N-[(5-chloro-2-fluorophenyl)methyl]-1-{2-fluoro-4-[3-fluoro-2-oxo-4-(2-phenylacetamido)-1,2-dihydropyridin-1-yl]butyl}-1H-1,2,3-triazole-4-carboxamide] | < 0.1 | < 0.1
O=C(CC1CCCC1)Nc1ccn(CCC(F)Cn2cc(C(=O)NCc3ccccn3)nn2)c(=O)c1F (centres unmarked) [Example 393, 1-{4-[4-(2-cyclopentylacetamido)-3-fluoro-2-oxo-1,2-dihydropyridin-1-yl]-2-fluorobutyl}-N-(pyridin-2-ylmethyl)-1H-1,2,3-triazole-4-carboxamide] | < 0.1 | < 0.1
O=C(CC1CCCC1)Nc1ccn(CCC(F)Cn2cc(C(=O)NCc3ccc(C(F)(F)F)cn3)nn2)c(=O)c1F (centres unmarked) [Example 394, 1-{4-[4-(2-cyclopentylacetamido)-3-fluoro-2-oxo-1,2-dihydropyridin-1-yl]-2-fluorobutyl}-N-{[5-(trifluoromethyl)pyridin-2-yl]methyl}-1H-1,2,3-triazole-4-carboxamide] | < 0.1 | < 0.1
O=C(CC1CCCC1)Nc1ccn(CCC(F)Cn2cc(C(=O)NCc3cc(Cl)ccc3F)nn2)c(=O)c1F (centres unmarked) [Example 395, N-[(5-chloro-2-fluorophenyl)methyl]-1-{4-[4-(2-cyclopentylacetamido)-3-fluoro-2-oxo-1,2-dihydropyridin-1-yl]-2-fluorobutyl}-1H-1,2,3-triazole-4-carboxamide] | < 0.1 | < 0.1
Cc1ccc(CNC(=O)c2cn(CC(F)CCn3ccc(NC(=O)OC4CCC4)c(F)c3=O)nn2)cn1 (centres unmarked) [Example 396, cyclobutyl N-{3-fluoro-1-[3-fluoro-4-(4-{[(6-methylpyridin-3-yl)methyl]carbamoyl}-1H-1,2,3-triazol-1-yl)butyl]-2-oxo-1,2-dihydropyridin-4-yl}carbamate] | < 0.1 | 0.1 to 0.5
